Common to all, as to format: cell-based, human
Experiment [1] relates to HCT116 colon carcinoma cells. Description: Senescence-associated β-galactosidase (SA-β-gal) staining. The note with it: PKH2hi fraction after 200 nM doxorubicin 24 hr. As for the experimental part: (§1) HCT116 colon carcinoma cells (Myohanen et al., 1998, Cancer Res. 58: 591-593; Accession No. CCL-247, American Type Culture Collection, Manassas, Va.), including wild-type, p21−/− (clone 80S4) and p53−/− (clone 379.2) cell lines (a gift of Dr. B. Vogelstein, Johns Hopkins University) were grown in Dulbecco Modified Eagle Medium with 10% FC2 serum. Cells were plated at 5×10^6 cells per 15-cm plate and treated for 24-hr with 200 nM doxorubicin. Thereafter, cells were allowed to recover in drug-free media up to 10 days. For fluorescence-activated cell sorter (FACS) analysis of cell division, cells were labeled with PKH2 (a lipophilic fluorophore; Sigma Chemical Co., St. Louis, Mo.), which stably incorporates into the plasma membrane and distributes evenly between daughter cells, resulting in gradual decrease in PKH2 fluorescence during consequent cell divisions (Horan et al., 1989, Nature 340: 167-168). FACS analysis and cell sorting carried out as described in Chang et al. (1999, Cancer Res. 59: 3761-3767 and 1999, Oncogene 18: 4808-4818). Sorted fractions of senescent (pKH2^hi) and proliferating (PKH2^lo) cells (90-95% purity) were analyzed for DNA content using propidium iodide (PI) staining and FACS analysis as described by Jordan et al. (1996, Cancer Res. 56: 816-825). […]

Experiment [2] relates to HCT116 colon carcinoma cells. Description: FACS analysis of cell division by PKH2 fluorescence after doxorubicin treatment. The settings on record: 200 nM doxorubicin 24 hr. How it is done:
as §1
Changes in PKH2 fluorescence were monitored by FACS on different days after doxorubicin treatment. […]
On the technique in general: Flow cytometry measures light scatter and fluorescence of single cells or particles in a stream.

Experiment [3] deals with senescence-associated genes in HCT116 cells. Description: RT-PCR of senescence-associated gene expression in wild type, p21−/− and p53−/− HCT116 cells upon doxorubicin treatment. How it is done:
(§2) In these experiments, poly(A)^+ RNA and protein extracts were prepared from PKH2^lo and PKH2^hi cell populations, separated in different experiments 6, 9 or 10 days after release from doxorubicin. Fluorescent cDNA probes were synthesized and used for hybridization with the Human UniGEM V 2.0 cDNA microarray and signal analysis (assays were conducted by IncyteGenomics, St. Louis, Mo., as described at that company's web site, www.incyte.com). Changes in gene expression were verified by semi-quantitative reverse transcription-PCR (RT-PCR), essentially as described (Noonan et al., 1990, Proc. Natl. Acad. Sci. USA 87: 7160-7164), using β-actin as an internal normalization standard and the oligonucleotide primers shown in Table 3. RT-PCR analysis was carried out using two pairs of proliferating- and senescent-cell RNA preparations isolated in independent experiments, with the same results; for a subset of the genes, the assays were reproduced with the same pair of RNA samples. […] Bands were detected using horseradish peroxidase-labeled secondary antibodies and ECL chemiluminescence detection kit (Amersham Pharmacia Biotech, Piscataway, N.J.).
To elucidate the roles of p53 and p21 in the observed changes in gene expression, expression of senescence-associated genes upon doxorubicin treatment of wild type, p21−/− and p53−/− HCT116 cells was analyzed. RNA samples were isolated before the addition of the drug, immediately after one-day treatment with doxorubicin, and on three consecutive days after the removal of the drug.

For another experiment, the system named is p21. Description: Immunoblotting of p53 and p21 in wild type, p21−/− and p53−/− HCT116 cell lines treated with doxorubicin. The note with it: wild type vs p53−/− and p21−/− HCT116. As for the experimental part:
as §2

Another experiment concerns Maspin. Description: Immunoblotting of protein products of senescence-associated genes in doxorubicin-treated HCT116 cells. As for the experimental part: as §2
Background: A western blot detects proteins with antibodies after separation by electrophoresis.

Experiment [4] deals with HCT116 colon carcinoma cells. Description: DNA content analysis by propidium iodide staining and FACS. The settings on record: PKH2hi fraction after 200 nM doxorubicin 24 hr. As for the experimental part:
as §1

The subject of experiment [5] is HCT116 colon carcinoma cells. Description: Clonogenicity of sorted populations (colony formation). The note with it: PKH2hi fraction separated after doxorubicin treatment. As for the experimental part:
as §1

Turning to `COc1cccc2c1C(=O)c1c(O)c3c(c(O)c1C2=O)C[C@@](O)(C(=O)CO)C[C@@H]3O[C@H]1C[C@H](N)[C@H](O)[C@H](C)O1` [doxorubicin], the “SA-β-gal staining of PKH2hi cells” value in experiment [1] is “stained positively for SA-β-gal”. Besides, the “day on which a proliferating cell population (PKH2lo) emerged” value in experiment [2] (days after treatment) worked out at 4 days. Moreover, in experiment [2] (first 2-3 days after treatment), the “growth arrest of PI-negative cells (PKH2 fluorescence)” value was “remained growth-arrested”. Moreover, in experiment [3] (p53−/− HCT116), the “Maspin induction in p53−/− cells” value is given as “still readily detectable in p53−/− cells”. Further, the “BTG2 induction in p53−/− cells” value in experiment [3] (p53−/− vs wild type HCT116) is “inducible by doxorubicin in p53−/− cells, albeit to a lesser degree than in the wild type cells”. Moreover, the “EPLIN induction in the unsorted cells” value in experiment [3] (unsorted HCT116 cells, compared with the other growth-inhibitory genes) is listed as “weakest induction”. In experiment [3] (wild type vs p53−/− HCT116), the “Amphiregulin induction, dependence on p53” value is “only moderate dependence on p53”; the “BTG1 induction, dependence on p53” value is recorded as “independent of p53”; the “IGFBP-6 induction, dependence on p53” value was “no dependence on p53”; the “MIC-1 induction, dependence on p53” value was “only weak dependence on p53”. For the same compound, the “p21 protein induction, dependence on p53” value in the experiment with p21 is given as “strongly dependent on p53”. The “Maspin induction at the protein level” value with Maspin is given as “very strong induction”. Further, the “cell cycle phase of PKH2hi cells (DNA content)” value in experiment [4] is “remained in G2”. The “colony formation by PKH2hi cells” value in experiment [5] is “have lost their proliferative capacity”.

Values taken from US20070128596A1, “Reagents and methods for identifying and modulating expression of tumor senescence genes” (priority 2002, published 2007).
